From patent publication US4390547A, “2,2-Dimethyl-3-(substituted ethyl)cyclopropane carboxylate pesticidal compositions and methods” (priority 1981, dated 1983)
Like-named read-outs stand apart in the source and are kept apart here.

What was measured:
[1] = test system: guppies; assay: Fish toxicity test (Test Example 4); type: in vivo; conditions: concentration killing 50% of female guppies during 48 hours, 20° C.; [Mixture] = cis/trans 50/50
Method: The mixture was stirred well to prepare a test water. Ten female guppies from 3 to 4 months of age were released into the test water and maintained at 20° C. The concentration of the test compound at which 50% of the guppies were killed during the ensuring 48 hours was determined. [This concentration is referred to as TLm (medium tolerance limit, ppm)].
A rank corresponds to TLm of not less than 10 ppm.
B rank corresponds to TLm of 0.5-10 ppm.
C rank corresponds to TLm of not more than 0.5 ppm.

[2] = Light stability test (Test Example 3); type: physicochemical; conditions: glass plate, uv light
Method: Into 2.0 ml of acetone were dissolved 80 mg of each test compound. A 5 μl portion of the solution was taken and spread on a glass plate (Micro Standard Cover Glass, 18 m/m No. 1, 200 pcs, Matsunami Glass Ind., Ltd.) and the acetone was evaporated. The specimen was exposed to ultraviolet light from a fluorescent lamp (Tokyo Shibaura Electric Co., Ltd., FL20BL, glow-type, 100 V, 24.5 W, wavelength=3600 A) which was fixed just above the specimen at a distance of 11 cm at a temperature of 31°-35° C. for a predetermined exposure time. The test liquid was washed away with 1.0 ml of methanol containing 0.04% of dioctyl phthalate as an internal reference and high-speed liquid chromatography was carried out on the washings to determine the residual amount of the test compound.

[3] = test system: green rice leafhoppers; assay: Mortality of green rice leafhoppers on sprayed rice seedlings (Utility Example 1); conditions: green rice leafhopper, in vivo, 24 h
Method: To 30 parts of each of Compounds (1) to (38) were added 50 parts of xylene and 20 parts of Sorpol SM-200 (a surfactant, trademark of Toho Chemical Co., Ltd.). The mixture was stirred well and dissolved to obtain a 30% emulsifiable concentrate.
The emulsifiable concentrate prepared from Compounds (7), (11), (12), (15), (17), (21) and (22) [Each compound is a mixture of cis- and trans-isomer in a ratio of 50/50] in Formulation Example 5 were each diluted 300-fold with water. Then, each of the dilutions was sprayed over rice seedlings 25 days after sowing at the rate of 10 ml/pot. The pot was covered with a wire net and 15 green rice leafhoppers were released under the net. After 24 hours, the leafhoppers were examined for deaths. The mortality (%) was not less than 90% for each of Compounds (7), (11), (12), (15), (17), (21) and (22).

[4] = test system: houseflies (Musca domestica); assay: Mortality test against houseflies by the settling mist method (Utility Examples 2 and 3); type: in vivo; conditions: cis/trans 50/50, 24 hours
Method: 0.2 part of each of Compounds (1) to (38) was prepared and 0.8 part of piperonyl butoxide was added to each of them. To this mixture was added a sufficient amount of kerosene to make 100 parts, followed by stirring. By this procedure there was obtained an oil preparation of each Compound.
To 0.1 part of each of Compounds (1) to (38) was added 0.08 part of permethrin, followed by the addition of a sufficient amount of kerosene to make 100 parts. The mixture was stirred to obtain an oil preparation of each compound.
(§1) By the settling mist method, a mortality test against houseflies, (Musca domestica) was carried out using the oil preparations obtained according to Formulation Example 1 from Compounds (1), (5), (7), (9), (11) and (15) [Each compound is a mixture of cis- and trans-isomer in a ratio 50/50]. After 24 hours, the flies were examined for deaths. The mortality (%) was not less than 90% for each of Compounds (1), (5), (7), (9), (11) and (15).
as §1, with “against houseflies” for “against houseflies, (Musca domestica)”, “obtained in” for “obtained according to”, “Example 3” for “Example 1”, “(9), (11), (12), (15), (17)” for “(9), (11)”, “and (28)” for “and (15)”, “and (28).” for “and (15).”

[5] = test system: housefly (Musca domestica); assay: Mortality test against houseflies by topical application (Test Example 1); type: in vivo; conditions: 24 h
Method: Each test compound was accurately weighed and a 1% solution and an 0.1% solution of the sample in acetone were prepared. A 1 μl portion of either of the above solutions was micropipetted onto the thoracic dorsal part of each female adult housefly (Musca domestica) under ether anaesthesia and the fly was released in a high-walled dish together with feed. The dish was covered with a metal-wire net and maintained at 25° C. After 24 hours, the test flies were inspected for deaths and the mortality (%) was calculated. Thirty test flies were used per concentration group.

[6] = oil preparation of Formulation Example 1 (0.2 part compound + 0.8 part piperonyl butoxide)
[7] = oil preparation of Formulation Example 3 (0.1 part compound + 0.08 part permethrin)
[8] = exposure time 3.5 hours, ultraviolet light 3600 A, 31°-35° C., [Mixture] = cis/trans 50/50, read-out: Residue (%)
[9] = exposure time 3 days, ultraviolet light 3600 A, 31°-35° C., [Mixture] = cis/trans 50/50, read-out: Residue (%)

CC1(C)[C@H](C(=O)OC(C(N)=S)c2cccc(Oc3ccccc3)c2)[C@@H]1CC(Cl)(Cl)Cl (stereo partly drawn) [(27) [Cis-isomer], 3-Phenoxy-α-thiocarbamoylbenzyl 2,2-dimethyl-3-(2,2,2-trichloroethyl)cyclopropanecarboxylate]
TLm (medium tolerance limit) [1]: A (A rank corresponds to TLm of not less than 10 ppm.)

C#CC(OC(=O)C1C(CC(Cl)(Cl)Cl)C1(C)C)c1cccc(Oc2ccccc2)c1 (stereo not drawn) [(11) [Mixture], 3-Phenoxy-α-ethynylbenzyl 2,2-dimethyl-3-(2,2,2-trichloroethyl)cyclopropanecarboxylate]
remaining at 3.5 h [2]: 100%
remaining at 72 h [2]: 71%
remaining at 120 h [2]: 65%

CC1(C)[C@H](C(=O)OCc2cccc(Oc3ccccc3)c2)[C@@H]1CC(Cl)(Cl)Cl (relative stereo) [(1) [Cis-isomer], 3-Phenoxybenzyl 2,2-dimethyl-3-(2,2,2-trichloroethyl)cyclopropanecarboxylate]
remaining at 3.5 h [2]: 97%
remaining at 72 h [2]: 91%
remaining at 120 h [2]: 85%

C#CC(OC(=O)[C@@H]1[C@H](CC(C)(Cl)Cl)C1(C)C)c1cccc(Oc2ccccc2)c1 (relative stereo) [(13) [Cis-isomer], 3-Phenoxy-α-ethynylbenzyl 2,2-dimethyl-3-(2,2-dichloropropyl)cyclopropanecarboxylate]
remaining at 3.5 h [2]: 100%
remaining at 72 h [2]: 88%
remaining at 120 h [2]: 73%
TLm (medium tolerance limit) [1]: A (A rank corresponds to TLm of not less than 10 ppm.)

C#CC(OC(=O)C1C(CC(Br)(Br)Br)C1(C)C)c1cccc(Oc2ccccc2)c1 (stereo not drawn) [Compound (12), 3-Phenoxy-α-ethylnylbenzyl 2,2-dimethyl-3-(2,2,2-tribromoethyl)cyclopropanecarboxylate]
mortality (%) [3]: not less than 90%

CC(Cl)(Cl)CC1C(C(=O)OC(C#N)c2cccc(Oc3ccccc3)c2)C1(C)C (stereo not drawn) [Compound (9), 3-Phenoxy-α-cyanobenzyl 2,2-dimethyl-3-(2,2-dichloropropyl)cyclopropanecarboxylate]
mortality (%) [4, 6]: not less than 90%
mortality (%) [4, 7]: not less than 90%

CC1(C)C(CC(Cl)(Cl)Cl)C1C(=O)OC(C#N)c1cccc(OC=C(Cl)Cl)c1 (stereo not drawn) [(34) [Mixture], 3-(2,2-dichlorovinyloxy)-α-cyanobenzyl 2,2-dimethyl-3-(2,2,2-trichloroethyl)cyclopropanecarboxylate]
remaining at 3.5 h [2, 8]: 100%
remaining at 72 h [2, 9]: 88%
remaining at 120 h ([2]; exposure time 5 days, ultraviolet light 3600 A, 31°-35° C., [Mixture] = cis/trans 50/50, read-out: Residue (%)): 44%

CC1(C)C(CC(Cl)(Cl)Cl)C1C(=O)OCN1C(=O)C2=C(CCCC2)C1=O (centres unmarked) [(37) [Mixture], 3,4,5,6-Tetrahydrophthalimidomethyl 2,2-dimethyl-3-(2,2,2-trichloroethyl)cyclopropanecarboxylate]
remaining at 3.5 h [2]: 16%
remaining at 72 h [2]: 0%

CC1(C)C(CC(Cl)(Cl)Cl)C1C(=O)OC(C#N)c1cccc(Oc2ccc(Br)cc2)c1 (stereo not drawn) [(17), 3-(4-Bromophenoxy)-α-cyanobenzyl 2,2-dimethyl-3-(2,2,2-trichloroethyl)cyclopropanecarboxylate]
mortality (%) [4, 7]: not less than 90%

C#CC(OC(=O)C1C(CC(Cl)(Cl)Cl)C1(C)C)c1cccc(Oc2ccc(Cl)cc2)c1 (stereo not drawn) [(21) [Mixture], 3-(4-Chlorophenoxy)-α-ethynylbenzyl 2,2-dimethyl-3-(2,2,2-trichloroethyl)cyclopropanecarboxylate]
remaining at 3.5 h [2]: 100%
remaining at 72 h [2]: 78%
remaining at 120 h [2]: 56%

CC(Cl)(Cl)CC1C(C(=O)OCc2cccc(Oc3ccccc3)c2)C1(C)C (centres unmarked) [Compound (5), 3-Phenoxybenzyl 2,2-dimethyl-3-(2,2-dichloropropyl)cyclopropanecarboxylate]
mortality (%) [4, 6]: not less than 90%
mortality (%) [4, 7]: not less than 90%

CC1(C)C(CC(Cl)(Cl)Cl)C1C(=O)OC(C#N)c1cccc(Oc2ccc(Cl)cc2)c1 (stereo not drawn) [(15) [Mixture], 3-(4-Chlorophenoxy)-α-cyanobenzyl 2,2-dimethyl-3-(2,2,2-trichloroethyl)cyclopropanecarboxylate]
remaining at 3.5 h [2]: 100%
remaining at 72 h [2]: 93%
remaining at 120 h [2]: 96%

CC1(C)[C@H](CC(Cl)(Cl)Cl)[C@H]1C(=O)OC(C#N)c1cccc(Oc2ccccc2)c1 (relative stereo) [(7) [Trans-isomer], 3-Phenoxy-α-cyanobenzyl 2,2-dimethyl-3-(2,2,2-trichloroethyl)cyclopropanecarboxylate]
mortality at 1 µg/fly [5]: 96.7%
mortality at 10 µg/fly [5]: 100%

C=CCC1=C(C)C(OC(=O)C2C(CC(Cl)(Cl)Cl)C2(C)C)CC1=O (centres unmarked) [(38) [Mixture], Allethronyl 2,2-dimethyl-3-(2,2,2-trichloroethyl)cyclopropanecarboxylate]
remaining at 3.5 h [2]: 21%
remaining at 72 h [2]: 0%

CC1(C)C(CC(Cl)(Cl)Cl)C1C(=O)OCc1cccc(Oc2ccccc2)c1 (centres unmarked) [(1), 3-Phenoxybenzyl 2,2-dimethyl-3-(2,2,2-trichloroethyl)cyclopropanecarboxylate]
mortality (%) [4, 6]: not less than 90%
mortality (%) [4, 7]: not less than 90%

CC1(C)C(CC(Cl)(Cl)Cl)C1C(=O)OCc1coc(Cc2ccccc2)c1 (centres unmarked) [(28), 5-Benzyl-3-furylmethyl 2,2-dimethyl-3-(2,2,2-trichloroethyl)cyclopropanecarboxylate]
mortality (%) [4, 7]: not less than 90%

CC1(C)C(C=C(Cl)Cl)C1C(=O)OCc1cccc(Oc2ccccc2)c1 (mixture of isomers) [Permethrin, 3-phenoxybenzyl(+)-cis,trans-2,2-dimethyl-3-(2,2-dichlorovinyl)cyclopropanecarboxylate, reference compound]
TLm (medium tolerance limit) [1]: C (C rank corresponds to TLm of not more than 0.5 ppm.)

C#CC(OC(=O)C1C(CC(Cl)(Cl)Cl)C1(C)C)c1cccc(Oc2ccc(Cl)cc2)c1 (stereo not drawn) [(21), 3-(4-Chlorophenoxy)-α-ethynylbenzyl 2,2-dimethyl-3-(2,2,2-trichloroethyl)cyclopropanecarboxylate]
mortality (%) [3]: not less than 90%

CC1(C)C(CC(Cl)(Cl)Cl)C1C(=O)OC(C#N)c1cccc(Oc2ccccc2)c1 (stereo not drawn) [(7) [Mixture], 3-Phenoxy-α-cyanobenzyl 2,2-dimethyl-3-(2,2,2-trichloroethyl)cyclopropanecarboxylate]
remaining at 3.5 h [2]: 100%
remaining at 72 h [2]: 84%
remaining at 120 h [2]: 75%

CC1(C)C(CC(Cl)(Cl)Cl)C1C(=O)OCc1coc(Cc2ccccc2)c1 (centres unmarked) [(28) [Mixture], 5-Benzyl-3-furylmethyl 2,2-dimethyl-3-(2,2,2-trichloroethyl)cyclopropanecarboxylate]
remaining at 3.5 h [2]: 5%
remaining at 72 h [2]: 0%

C=CCC1=C(C)C(OC(=O)C2C(C=C(C)C)C2(C)C)CC1=O (centres unmarked) [Allethrin, allethrin, reference compound]
remaining at 3.5 h [2, 8]: 14%
remaining at 72 h [2, 9]: 0%
